Assay results reported in patent publication US20230321086A1, “METHODS AND MATERIALS FOR INHIBITING NICOTINAMIDE PHOSPHORIBOSYLTRANSFERASE ACTIVITY” (Universiy of Pittsburgh - Of the Commonwealth System of …, priority 2020, published 2023).

Target: NAMPT (Homo sapiens, UniProt P43490)
Assay: Assay for in vitro NAMPT activity via NMN assessment
Type: biochemical
Details: read-out: A: NAMPT enzyme inhibitory activity, IC50
Procedure: The following were added to a well: 20 μL 2× test compound in Basic Buffer (0.02% BSA, 2 mM DTT, 12 mM MgCl2, 50 mM Tris pH7.5); 10 μL 8 μg/mL NAMPT, and 200 μM PRPP working solution (or PRPP working solution to background wells). 10 μL 100 μM NAM working solution was added to start the reaction. The plate was sealed and incubated for 45 minutes at 37° C. After incubation, 10 μL 20% acetophenone in DMSO, 10 μL 2N KOH, and 20 μL 88% formic acid were added. The plate was sealed and incubated for 30 minutes at 37° C. After incubation, fluorescence at Ex/Em 387/441 was read.
In each table header, A: NAMPT enzyme inhibitory activity, IC50 (μM); B: Cellular NAD inhibitory activity, IC50 (μM); and C: change in NAD levels in response to test compound, shown as % of NAD activity in the absence of test compound. […] A percentage of 100 percent would indicate no increase or decrease in NAD levels as compared to that measured for untreated control cells, while a percentage of 50 percent would indicate a decrease in NAD levels of 50 percent as compared to that measured for untreated control cells.

Sequence of NAMPT (P43490 whole entry, species assumed): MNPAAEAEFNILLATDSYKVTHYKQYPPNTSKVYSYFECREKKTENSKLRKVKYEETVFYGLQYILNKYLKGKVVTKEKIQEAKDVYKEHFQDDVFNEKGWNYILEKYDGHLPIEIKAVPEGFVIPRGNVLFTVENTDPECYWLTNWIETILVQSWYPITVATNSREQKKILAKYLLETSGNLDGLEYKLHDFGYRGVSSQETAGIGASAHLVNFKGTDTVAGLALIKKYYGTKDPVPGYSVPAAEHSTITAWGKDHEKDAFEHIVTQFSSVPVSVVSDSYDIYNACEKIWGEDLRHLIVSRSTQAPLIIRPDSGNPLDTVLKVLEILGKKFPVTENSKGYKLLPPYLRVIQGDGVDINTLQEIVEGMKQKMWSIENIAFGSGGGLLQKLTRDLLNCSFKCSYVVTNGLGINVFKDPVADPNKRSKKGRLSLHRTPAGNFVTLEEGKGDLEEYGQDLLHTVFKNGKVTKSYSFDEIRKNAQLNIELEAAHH

Question: Which IC50 does the source give for CS(=O)(=O)N1CCCC(NC(=O)NCc2ccc3nc(-c4ccc(F)cc4)c(-c4ccc(F)cc4)nc3c2)C1 (centres unmarked) [BC20253] here?
Answer: ≥ 25 µM

Question: With O=C(Nc1cnc2nc(-c3ccc(F)cc3)c(-c3ccc(F)cc3)nc2c1)NC1CCCNC1 (centres unmarked) [BC20255] as the molecule, how does the IC50 read?
Answer: ≥ 25 µM

Question: CS(=O)(=O)N1CCCC(NC(=O)Nc2cnc3nc(-c4ccc(F)cc4)c(-c4ccc(F)cc4)nc3c2)C1 (centres unmarked) [BC20256] was tested. Which IC50 did it give?
Answer: 1 to 25 µM

Question: CN1CCN(C(=O)c2ccc3nc(-c4cccc(NS(C)(=O)=O)c4)c(-c4cccc(NS(C)(=O)=O)c4)nc3c2)CC1 [BC20258] was tested. Which IC50 did it give?
Answer: ≥ 25 µM

Question: Which IC50 does the source give for CN1CCN(C(=O)c2ccc3nc(-c4cccc(CNS(C)(=O)=O)c4)c(-c4cccc(CNS(C)(=O)=O)c4)nc3c2)CC1 [BC20259] here?
Answer: ≥ 25 µM

Question: How did the IC50 turn out when CN(C)Cc1cccc(-c2nc3ccc(C(=O)N4CCN(C)CC4)cc3nc2-c2cccc(CN(C)C)c2)c1 [BC20260] was run?
Answer: ≥ 25 µM

Question: For C#CCNC(=O)c1ccc2nc(-c3cccc(CNS(C)(=O)=O)c3)c(-c3cccc(CNS(C)(=O)=O)c3)nc2c1 [BC20261], which IC50 is on record?
Answer: ≥ 25 µM

Question: For CN1CCN(C(=O)c2ccc3nc(-c4ccc(F)cc4)c(-c4cccc(N(C)C)c4)nc3c2)CC1 [BC20262], which IC50 is on record?
Answer: ≥ 25 µM

Question: For CN(C)CC(=O)NCc1cccc(-c2nc3cc(C(=O)N4CCN(C)CC4)ccc3nc2-c2ccc(F)cc2)c1 [BC20263], which IC50 is on record?
Answer: ≥ 25 µM

Question: COCC(=O)NCc1cccc(-c2nc3cc(C(=O)N4CCN(C)CC4)ccc3nc2-c2ccc(F)cc2)c1 [BC20264] was tested. Which IC50 did it give?
Answer: ≥ 25 µM

Question: How did the IC50 turn out when CN1CCN(C(=O)c2ccc3nc(-c4ccc(F)cc4)c(-c4cccc(CN5CCCC5)c4)nc3c2)CC1 [BC20265] was run?
Answer: ≥ 25 µM

Question: Which IC50 does the source give for C#CCNC(=O)c1ccc2nc(-c3cccc(NC(=O)CN(C)C)c3)c(-c3ccc(F)cc3)nc2c1 [BC20266] here?
Answer: ≥ 25 µM

Question: With O=C(NCc1ccc2nc(-c3ccc(F)cc3)c(-c3ccc(F)cc3)nc2c1)c1cccnc1 [BC20267] as the molecule, how does the IC50 read?
Answer: 1 to 25 µM

Question: Which IC50 does the source give for CN1CCCC(NC(=O)Nc2cnc3nc(-c4ccc(F)cc4)c(-c4ccc(F)cc4)nc3c2)C1 (centres unmarked) [BC20269] here?
Answer: ≥ 25 µM

Question: Which IC50 does the source give for CS(=O)(=O)N1CCC[C@H](CNC(=O)c2ccc3nc(-c4ccc(F)cc4)c(-c4ccc(F)cc4)nc3c2)C1 [BC20270] here?
Answer: ≥ 25 µM

Question: With CC(=O)N1CCC[C@H](CNC(=O)c2ccc3nc(-c4ccc(F)cc4)c(-c4ccc(F)cc4)nc3c2)C1 [BC20271] as the molecule, how does the IC50 read?
Answer: ≥ 25 µM

Question: How did the IC50 turn out when CC(=O)NCc1cccc(-c2nc3ccc(C(=O)N4CCN(C)CC4)cc3nc2-c2cccc(CNC(C)=O)c2)c1 [BC20272] was run?
Answer: ≥ 25 µM

Question: How did the IC50 turn out when COCC(=O)NCc1cccc(-c2nc3ccc(C(=O)N4CCN(C)CC4)cc3nc2-c2cccc(CNC(=O)COC)c2)c1 [BC20273] was run?
Answer: ≥ 25 µM

Question: How did the IC50 turn out when C#CCNC(=O)c1ccc2nc(-c3cccc(CNC(C)=O)c3)c(-c3cccc(CNC(C)=O)c3)nc2c1 [BC20274] was run?
Answer: ≥ 25 µM

Question: Which IC50 does the source give for C#CCNC(=O)c1ccc2nc(-c3cccc(CNC(=O)COC)c3)c(-c3cccc(CNC(=O)COC)c3)nc2c1 [BC20275] here?
Answer: ≥ 25 µM

Question: For C#CCNC(=O)c1ccc2nc(-c3ccc(F)cc3)c(-c3cccc(CNC(=O)COC)c3)nc2c1 [BC20276], which IC50 is on record?
Answer: ≥ 25 µM

Question: O=C1N(Cc2cccnc2)CCN1c1ccc2nc(-c3ccc(F)cc3)c(-c3ccc(F)cc3)nc2c1 [BC20277] was tested. Which IC50 did it give?
Answer: 1 to 25 µM

Question: For O=C(Cc1cccnc1)NCc1ccc2nc(-c3ccc(F)cc3)c(-c3ccc(F)cc3)nc2c1 [BC20278], which IC50 is on record?
Answer: 1 to 25 µM

Question: Which IC50 does the source give for O=C(NC[C@H]1CCCNC1)c1ccc2nc(-c3ccc(F)cc3)c(-c3ccc(F)cc3)nc2c1 [BC20279] here?
Answer: ≥ 25 µM

Question: With CN1CCC[C@H](CNC(=O)c2ccc3nc(-c4ccc(F)cc4)c(-c4ccc(F)cc4)nc3c2)C1 [BC20280] as the molecule, how does the IC50 read?
Answer: 1 to 25 µM

Question: With COCC(=O)N1CCC[C@H](CNC(=O)c2ccc3nc(-c4ccc(F)cc4)c(-c4ccc(F)cc4)nc3c2)C1 [BC20281] as the molecule, how does the IC50 read?
Answer: ≥ 25 µM

Question: With COCCNC(=O)N1CCC[C@H](CNC(=O)c2ccc3nc(-c4ccc(F)cc4)c(-c4ccc(F)cc4)nc3c2)C1 [BC20282] as the molecule, how does the IC50 read?
Answer: ≥ 25 µM

Question: With CCCC(=O)N1CCC[C@H](CNC(=O)c2ccc3nc(-c4ccc(F)cc4)c(-c4ccc(F)cc4)nc3c2)C1 [BC20283] as the molecule, how does the IC50 read?
Answer: ≥ 25 µM

Question: CS(=O)(=O)N1CCC[C@H](CNC(=O)NCc2ccc3nc(-c4ccc(F)cc4)c(-c4ccc(F)cc4)nc3c2)C1 [BC20284] was tested. Which IC50 did it give?
Answer: 1 to 25 µM

Question: With O=C(NCc1ccc2nc(-c3ccc(F)cc3)c(-c3ccc(F)cc3)nc2c1)NC[C@H]1CCCNC1 [BC20285] as the molecule, how does the IC50 read?
Answer: 1 to 25 µM

Question: CN(C)CC(=O)Nc1cccc(-c2nc3ccc(C(=O)N4CCN(C)CC4)cc3nc2-c2cccc(NC(=O)CN(C)C)c2)c1 [BC20286] was tested. Which IC50 did it give?
Answer: ≥ 25 µM

Question: With C#CCNC(=O)c1ccc2nc(-c3cccc(NS(C)(=O)=O)c3)c(-c3cccc(NS(C)(=O)=O)c3)nc2c1 [BC20288] as the molecule, how does the IC50 read?
Answer: ≥ 25 µM

Question: For C#CCNC(=O)c1ccc2nc(-c3cccc(CNC(=O)CN(C)C)c3)c(-c3cccc(CNC(=O)CN(C)C)c3)nc2c1 [BC20289], which IC50 is on record?
Answer: ≥ 25 µM

Question: CN1CCN(C(=O)c2ccc3nc(-c4cccc(NS(C)(=O)=O)c4)c(-c4ccc(F)cc4)nc3c2)CC1 [BC20290] was tested. Which IC50 did it give?
Answer: ≥ 25 µM

Question: For O=C1N(Cc2cccnc2)CCN1c1cnc2nc(-c3ccc(F)cc3)c(-c3ccc(F)cc3)nc2c1 [BC20291], which IC50 is on record?
Answer: ≥ 25 µM

Question: Which IC50 does the source give for CC(C)CC(=O)N1CCC[C@H](CNC(=O)c2ccc3nc(-c4ccc(F)cc4)c(-c4ccc(F)cc4)nc3c2)C1 [BC20292] here?
Answer: ≥ 25 µM

Question: Which IC50 does the source give for CCCS(=O)(=O)N1CCCC(NC(=O)Nc2cnc3nc(-c4ccc(F)cc4)c(-c4ccc(F)cc4)nc3c2)C1 (centres unmarked) [BC20293] here?
Answer: ≥ 25 µM

Question: How did the IC50 turn out when CN1CCC[C@H](CNC(=O)NCc2ccc3nc(-c4ccc(F)cc4)c(-c4ccc(F)cc4)nc3c2)C1 [BC20294] was run?
Answer: ≥ 25 µM

Question: How did the IC50 turn out when C#CCCC(=O)N1CCC[C@H](CNC(=O)c2ccc3nc(-c4ccc(F)cc4)c(-c4ccc(F)cc4)nc3c2)C1 [BC20295] was run?
Answer: ≥ 25 µM

Question: For COCC(=O)NCc1cccc(-c2nc3ccc(C(=O)N4CCN(C)CC4)cc3nc2-c2ccc(F)cc2)c1 [BC20296], which IC50 is on record?
Answer: ≥ 25 µM

Question: C#CCNC(=O)Nc1cnc2nc(-c3ccc(F)cc3)c(-c3ccc(F)cc3)nc2c1 [BC20297] was tested. Which IC50 did it give?
Answer: ≥ 25 µM

Question: With COCCNC(=O)Nc1cnc2nc(-c3ccc(F)cc3)c(-c3ccc(F)cc3)nc2c1 [BC20298] as the molecule, how does the IC50 read?
Answer: ≥ 25 µM

Question: How did the IC50 turn out when CC(=O)N1CCC[C@H](CNC(=O)Nc2ccc3nc(-c4ccc(F)cc4)c(-c4ccc(F)cc4)nc3c2)C1 [BC20299] was run?
Answer: 1 to 25 µM

Question: With CS(=O)(=O)N1CCCC(CNC(=O)Nc2ccc3nc(-c4ccc(F)cc4)c(-c4ccc(F)cc4)nc3c2)C1 (centres unmarked) [BC20300] as the molecule, how does the IC50 read?
Answer: 1 to 25 µM

Question: Which IC50 does the source give for CC(=O)N1CCCC(CNC(=O)NCc2ccc3nc(-c4ccc(F)cc4)c(-c4ccc(F)cc4)nc3c2)C1 (centres unmarked) [BC20301] here?
Answer: 1 to 25 µM

Question: How did the IC50 turn out when Fc1ccc(-c2nc3cc4[nH]c(=S)n(CCc5cccnc5)c4nc3nc2-c2ccc(F)cc2)cc1 [BC20305] was run?
Answer: ≥ 25 µM

Question: Which IC50 does the source give for CC(=O)NCc1cccc(-c2nc3ccc(C(=O)N4CCN(C)CC4)cc3nc2-c2ccc(F)cc2)c1 [BC20306] here?
Answer: ≥ 25 µM

Question: CN(C)Cc1cccc(-c2nc3ccc(C(=O)N4CCN(C)CC4)cc3nc2-c2ccc(F)cc2)c1 [BC20307] was tested. Which IC50 did it give?
Answer: ≥ 25 µM

Question: For O=C(NCCc1cccnc1)Nc1ccc2nc(-c3ccc(F)cc3)c(-c3ccc(F)cc3)nc2n1 [BC20310], which IC50 is on record?
Answer: < 1 µM

Question: CN(C)CCNC(=O)Nc1cnc2nc(-c3ccc(F)cc3)c(-c3ccc(F)cc3)nc2c1 [BC20312] was tested. Which IC50 did it give?
Answer: ≥ 25 µM
